Results published in US8501804B2, “Bicyclic compound” (Takeda Pharmaceutical Company Limited, priority 2008, dated 2013).

How the values were obtained:
human ACC1 = target: T1, human ACC1 (Homo sapiens, UniProt Q13085); assay: ACC1 inhibitory activity (malachite green); type: biochemical; details: test compound 10 μM; for inhibition at 10 µM: read-out: ACC1 10 μM inhibitory rate (%)
T1 construct: His6 (from vector pFAST-BacHTc); made in house; host or cells: SF-9 insect cells, recombinant baculovirus BAC-ACC1
Protocol: The ACC1 inhibitory action of the compound of the present invention was evaluated by the following method.
(1) Cloning of Human ACC1 Gene and Preparation of Recombinant Baculovirus
(§1) Human ACC1 gene was cloned by PCR using a human liver cDNA library (Clontech) as a template and Primer 1 and Primer 2 shown below. Primer 1 and Primer 2 were prepared by adding SalI, NotI restriction enzyme recognition sequences based on the information of the base sequence of human ACC1 gene (Genbank Accession U19822).
(§2) PCR was performed using Pyrobest DNA polymerase (TAKARA BIO INC.). The obtained PCR product was cloned to pT7 Blue vector (Novagen) and, after confirmation of the base sequence, digested with restriction enzymes SalI and NotI. The obtained DNA fragment was inserted into pFAST-BacHTc (Invitrogen) digested with restriction enzymes SalI and NotI to give expression plasmid ACC1/pFAST-BacHTc.
Using the expression plasmid ACC1/pFAST-BacHTc and BAC-TO-BAC Baculovirus Expression System (Invitrogen), virus stock BAC-ACC1 of recombinant Baculovirus was prepared.
(2) Preparation of ACC1 Protein
(§3) SF-9 cells (Invitrogen) were inoculated to a medium (1 L) for insect cells (Sf-900IISFM medium (Invitrogen) containing 10% fetal bovine serum (Trace), 50 mg/L Gentamicin (Invitrogen), 0.1% Pluronic F-68 (Invitrogen)) at 1×10^6 cells/mL, and cultured with shaking in 2 L meyer at 27° C., 100 rpm.
After 24 hr of the culture, 10 mL of recombinant Baculovirus BAC-ACC1 was added, and the cells were cultured for 3 days. The culture medium was centrifuged at 1000×g for 5 min to give virus-infected cells. The cells were washed with phosphate buffered saline (Invitrogen) and centrifuged under the same conditions. The obtained cells were cryopreserved at −80° C.
The cryopreserved cells were thawed in ice and suspended in 100 mL of 25 mM HEPES buffer (pH 7.5) containing 10% Glycerol, 0.13 M NaCl, 1 mM EDTA, 25 mM Sodium […] and 1 mM Sodium Orthovanadate, and supplemented with Complete Protease Inhibitor (Nippon Boehringer Ingelheim Co., Ltd.). The obtained suspension was homogenized three times in a polytron homogenizer (Kinematica) at 20,000 rpm for 30 sec. The obtained cell disruption solution was clarified by centrifugation at 185700×g for 50 min, and filtered through a 0.45 μm filter. The filtrate was passed through a column packed with 12 ml of Ni-NTA Super Flow Gel (QUIAGEN) at a flow rate of about 5 mL/min. The column was washed with buffer A (50 mM HEPES (pH 7.5) containing 0.3 M NaCl), further washed with buffer A containing 20 mM Imidazole, and eluted with buffer A containing 100 mM Imidazole. The eluate was concentrated with Vivaspin 20 (Vivascience) with a molecular weight cut off of 30K. The obtained concentrate was dialyzed against Sephadex G-25 (Amersham Biosciences, 358 mL) equilibrated with 50 mM HEPES (pH 7.5) containing 10 mM MgCl2, 2 mM Dithiothreitol, 10 mM Tripotassium Citrate and 0.3 M NaCl. The inner dialysate was concentrated with Vivaspin 20 (Vivascience) with molecular weight cut off of 30K, and concentrate was filtered through a 0.22 μm filter to give ACC1. The obtained ACC1 was cryopreserved at −80° C.
(3) Measurement of ACC1 Inhibitory Activity
ACC1 (0.93 mg/ml) obtained in the above-mentioned (2) was diluted with an enzyme reaction buffer (50 mM HEPES (pH 7.5), 10 mM MgCl2, 10 mM Tripotassium Citrate, 2 mM Dithiothreitol, 0.75 mg/ml Fatty acid free BSA) to a concentration of 8 μg/ml, and the mixture was added to each well of a 384 well assay plate (Nunc 265196) by 10 μl. A test compound was dissolved in dimethyl sulfoxide (DMSO) and the mixture was diluted with an enzyme reaction buffer and the resulting solution (5 μl) was added to each well. The mixture was incubated at 30° C. for 60 min. Then, a substrate solution (50 mM KHCO3, 200 μM ATP, 200 μM Acetyl-CoA, 5 μl) was added to each well, and the mixture was reacted at 30° C. for 20 min (test compound addition group). […]

human ACC2 (Nd) = target: T2, human ACC2 (Nd) (Homo sapiens, UniProt O00763); assay: ACC2 inhibitory activity (malachite green); type: biochemical; details: test compound 10 μM; for inhibition at 10 µM: read-out: ACC2 10 μM inhibitory rate (%)
T2 construct: His6 (from vector pFAST-BacHTa); made in house; host or cells: SF-9 insect cells, recombinant baculovirus BAC-ACC2 (Nd)
Protocol: The ACC2 inhibitory action of the compound of the present invention was evaluated by the following method.
(1) Cloning of Human ACC2 Gene and Preparation of Recombinant Baculovirus
as §1, with “ACC2” for “ACC1”, “skeletal muscle” for “liver”, “XbaI” for “NotI”, “U89344).” for “U19822).”
as §2, with “XbaI.” for “NotI.”, “pFAST-BacHTa” for “pFAST-BacHTc”, “XbaI” for “NotI”, “ACC2/pFAST-BacHTa.” for “ACC1/pFAST-BacHTc.”
A plasmid for expression of ACC2 without a mitochondrial targeting sequence was prepared by PCR using the expression plasmid as a template, and Primer 3 (SalI restriction enzyme recognition sequence was added) and Primer 4 prepared by reference to the information of human ACC2 gene base sequence (Genbank Accession U89344).
as §2, with “Pyrobest-DNA” for “Pyrobest DNA”, “AflII.” for “NotI.”, “ACC2/pFAST-BacHTa” for “pFAST-BacHTc (Invitrogen)”, “AflII” for “NotI”, “ACC2mito7/pFAST-BacHTa.” for “ACC1/pFAST-BacHTc.”
Using the expression plasmid ACC2mito7/pFAST-BacHTa and BAC-TO-BAC Baculovirus Expression System (Invitrogen), virus stock BAC-ACC2 of recombinant Baculovirus (N terminal deleted (hereinafter Nd)) was prepared.
(2) Preparation of ACC2 (Nd) Protein
as §3, with “(2” for “(1”, “0.5×10^6” for “1×10^6”, “Wave Bioreactor (Wave)” for “2 L meyer”, “20 rpm, rocking angle 6°, oxygen concentration 30%.” for “100 rpm.”
On day 4 of the culture, 3 L of the medium for insect cells was added, the rocking angle was set to 8°, and the cells were cultured. On day 5 of the culture, 100 ml of recombinant Baculovirus BAC-ACC2 (Nd) was added, 5 L of the medium for insect cells was further added, the rocking angle was set to 11°, and the cells were cultured for 3 days. The culture medium was centrifuged at 1000×g for 10 min to give virus-infected cells. The cells were washed with phosphate buffered saline (Invitrogen) and centrifuged under the same conditions. The obtained cells were cryopreserved at −80° C.
The cryopreserved cells were thawed in ice and suspended in 900 ml of 25 mM HEPES buffer (pH 7.5) containing 10% Glycerol, 0.13 M NaCl, 1 mM EDTA, 25 mM Sodium β-Glycerophosphate and 1 mM Sodium Orthovanadate, and supplemented with Complete Protease Inhibitor (Nippon Boehringer Ingelheim Co., Ltd.). The obtained suspension was homogenized three times in a polytron homogenizer (Kinematica) at 20,000 rpm for 30 sec. The obtained cell disruption solution was clarified by centrifugation at 31000×g for 60 min, and filtered through a 0.45 μm filter. The filtrate was passed through a column packed with 60 mL of Ni-NTA Super Flow Gel (QUIAGEN) at a flow rate of about 5 mL/min. The column was washed with buffer A (50 mM HEPES (pH 7.5) containing 0.3 M NaCl), further washed with buffer A containing 20 mM Imidazole, and eluted with buffer A containing 100 mM Imidazole. The eluate was concentrated with Vivaspin 20 (Vivascience) with a molecular weight cut off of 30K. The obtained concentrate was dialyzed against 50 mM HEPES (pH 7.5) containing 10 mM MgCl2, 2 mM Dithiothreitol, 10 mM Tripotassium Citrate and 0.3 M NaCl. The inner dialysate was filtered through a 0.22 μm filter to give ACC2 (Nd). […]

T2 sequence (O00763 117-2458 limits assumed): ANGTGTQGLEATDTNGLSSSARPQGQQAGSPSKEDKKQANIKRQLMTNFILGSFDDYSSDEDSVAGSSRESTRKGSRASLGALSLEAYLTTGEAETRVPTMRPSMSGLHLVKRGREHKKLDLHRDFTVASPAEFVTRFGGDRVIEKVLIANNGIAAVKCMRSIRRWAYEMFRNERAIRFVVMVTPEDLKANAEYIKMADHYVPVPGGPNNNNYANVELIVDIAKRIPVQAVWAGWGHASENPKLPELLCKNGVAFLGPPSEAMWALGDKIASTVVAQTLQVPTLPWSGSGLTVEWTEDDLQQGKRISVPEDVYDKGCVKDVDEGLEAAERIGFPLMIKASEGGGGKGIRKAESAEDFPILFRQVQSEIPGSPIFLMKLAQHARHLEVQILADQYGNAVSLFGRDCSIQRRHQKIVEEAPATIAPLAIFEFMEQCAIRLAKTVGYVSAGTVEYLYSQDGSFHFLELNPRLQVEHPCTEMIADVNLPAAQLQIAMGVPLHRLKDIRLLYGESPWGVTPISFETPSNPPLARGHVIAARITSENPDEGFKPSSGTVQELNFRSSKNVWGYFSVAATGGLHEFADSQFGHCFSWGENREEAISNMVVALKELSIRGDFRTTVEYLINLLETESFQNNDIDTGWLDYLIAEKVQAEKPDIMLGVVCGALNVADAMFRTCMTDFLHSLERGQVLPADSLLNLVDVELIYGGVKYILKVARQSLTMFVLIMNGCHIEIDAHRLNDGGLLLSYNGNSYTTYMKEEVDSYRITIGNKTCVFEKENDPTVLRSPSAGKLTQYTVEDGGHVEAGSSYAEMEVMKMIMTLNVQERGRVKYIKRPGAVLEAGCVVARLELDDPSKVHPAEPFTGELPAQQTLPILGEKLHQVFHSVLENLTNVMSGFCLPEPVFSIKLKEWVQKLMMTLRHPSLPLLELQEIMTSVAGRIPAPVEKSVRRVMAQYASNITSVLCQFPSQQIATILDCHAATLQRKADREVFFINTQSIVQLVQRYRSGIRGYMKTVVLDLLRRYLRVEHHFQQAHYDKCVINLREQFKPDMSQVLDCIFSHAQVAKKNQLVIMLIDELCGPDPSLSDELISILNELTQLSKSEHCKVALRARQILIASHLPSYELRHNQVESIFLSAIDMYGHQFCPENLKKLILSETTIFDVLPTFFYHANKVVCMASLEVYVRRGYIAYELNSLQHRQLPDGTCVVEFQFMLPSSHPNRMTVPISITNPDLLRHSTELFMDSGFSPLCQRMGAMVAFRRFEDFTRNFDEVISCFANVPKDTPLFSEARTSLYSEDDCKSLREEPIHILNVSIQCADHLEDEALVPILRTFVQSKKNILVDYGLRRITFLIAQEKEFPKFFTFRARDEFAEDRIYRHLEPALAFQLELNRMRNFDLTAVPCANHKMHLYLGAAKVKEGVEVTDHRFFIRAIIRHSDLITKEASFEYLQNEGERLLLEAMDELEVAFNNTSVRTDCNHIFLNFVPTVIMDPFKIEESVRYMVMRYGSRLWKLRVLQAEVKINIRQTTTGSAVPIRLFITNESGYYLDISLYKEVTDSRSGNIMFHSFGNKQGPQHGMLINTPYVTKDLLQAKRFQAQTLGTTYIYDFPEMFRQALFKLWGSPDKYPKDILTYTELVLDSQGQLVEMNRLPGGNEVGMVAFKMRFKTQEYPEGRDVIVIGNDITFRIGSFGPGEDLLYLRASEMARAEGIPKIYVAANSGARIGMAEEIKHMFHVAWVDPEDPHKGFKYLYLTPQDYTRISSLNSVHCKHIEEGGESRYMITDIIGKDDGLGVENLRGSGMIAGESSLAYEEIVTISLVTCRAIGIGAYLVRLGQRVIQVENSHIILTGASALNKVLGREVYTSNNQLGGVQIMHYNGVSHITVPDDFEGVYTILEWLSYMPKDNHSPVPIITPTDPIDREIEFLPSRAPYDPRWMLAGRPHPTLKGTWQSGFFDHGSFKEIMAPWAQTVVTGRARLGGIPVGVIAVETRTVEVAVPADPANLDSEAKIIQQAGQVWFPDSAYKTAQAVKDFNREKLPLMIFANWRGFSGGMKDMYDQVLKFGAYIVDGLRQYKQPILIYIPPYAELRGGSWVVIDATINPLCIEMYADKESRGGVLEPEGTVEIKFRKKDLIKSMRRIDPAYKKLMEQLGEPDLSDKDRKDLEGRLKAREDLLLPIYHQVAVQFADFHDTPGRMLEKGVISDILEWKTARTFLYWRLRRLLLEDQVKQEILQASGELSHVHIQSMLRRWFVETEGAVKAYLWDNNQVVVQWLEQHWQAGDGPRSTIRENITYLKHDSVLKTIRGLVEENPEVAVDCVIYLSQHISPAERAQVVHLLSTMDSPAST

Row | SMILES | inhibition at 10 µM (human ACC1) | inhibition at 10 µM (human ACC2 (Nd)) | ACC1 10 μM inhibitory rate (%) (human ACC1) | ACC2 10 μM inhibitory rate (%) (human ACC2 (Nd))
1 | CC(=O)N[C@H](C)[C@H]1Cc2ccc(CCc3ccc(OCC4CC4)cc3)cc2O1 (racemic) [Example 121, 1:1 mixture of N-{(1R)-1-[(2R)-6-{2-[4-(cyclopropylmethoxy)phenyl]ethyl}-2,3-dihydro-1-benzofuran-2-yl]ethyl}acetamide and N-{(1S)-1-[(2S)-6-{2-[4-(cyclopropylmethoxy)phenyl]ethyl}-2,3-dihydro-1-benzofuran-2-yl]ethyl}acetamide] | 35% | 73% |  | 
2 | CCOc1ccc(COc2ccc3oc(C(C)NC(C)=O)cc3c2)c(F)c1 (stereo not shown) [Example 48, N-(1-{5-[(2-fluoro-4-ethoxybenzyl)oxy]-1-benzofuran-2-yl}ethyl)acetamide] | 10% | 78% |  | 
3 | CCOc1ccc(COc2ccc3sc(C(C)NC(C)=O)cc3c2)cc1 (stereo not shown) [Example 39, N-(1-{5-[(4-ethoxybenzyl)oxy]-1-benzothiophen-2-yl}ethyl)acetamide] | 17% | 80% |  | 
4 | CSCCOc1ccc(CCc2ccc3cc(C(C)NC(C)=O)oc3c2)cc1 (stereo not shown) [Example 169, N-{1-[6-(2-{4-[2-(methylsulfanyl)ethoxy]phenyl}ethyl)-1-benzofuran-2-yl]ethyl}acetamide] | 23% | 75% |  | 
5 | CC(=O)N[C@@H](C)[C@@H]1Cc2ccc(OCc3ccc(OC[C@@H]4CCCO4)cc3F)cc2O1 [Example 146, N-{(1S)-1-[(2S)-6-({2-fluoro-4-[(2S)-tetrahydrofuran-2-ylmethoxy]benzyl}oxy)-2,3-dihydro-1-benzofuran-2-yl]ethyl}acetamide] | 40% | 84% |  | 
6 | CC(=O)N[C@@H](C)[C@@H]1Cc2ccc(OCc3cnc(OCC4CC4)cc3F)cc2O1 [Example 142, N-{(1S)-1-[(2S)-6-{[6-(cyclopropylmethoxy)-4-fluoropyridin-3-yl]methoxy}-2,3-dihydro-1-benzofuran-2-yl]ethyl}acetamide] | 42% | 74% |  | 
7 | CC(=O)N[C@@H](C)[C@@H]1Cc2ccc(CCc3ccc(OCC4CC4)cc3)cc2O1.CC(=O)N[C@H](C)[C@H]1Cc2ccc(CCc3ccc(OCC4CC4)cc3)cc2O1 (mixture of isomers) [Example 130 (retention time longer), N-{(1R)-1-[(2R)-6-{2-[4-(cyclopropylmethoxy)phenyl]ethyl}-2,3-dihydro-1-benzofuran-2-yl]ethyl}acetamide and N-{(1S)-1-[(2S)-6-{2-[4-(cyclopropylmethoxy)phenyl]ethyl}-2,3-dihydro-1-benzofuran-2-yl]ethyl}acetamide] |  |  | 25% | 62%
8 | CC(=O)N[C@@H](C)[C@@H]1Cc2ccc(OCc3ccc(OCC4CC4)cc3)cc2O1 [Example 144, N-{(1S)-1-[(2S)-6-{[4-(cyclopropylmethoxy)benzyl]oxy}-2,3-dihydro-1-benzofuran-2-yl]ethyl}acetamide] | 48% | 88% |  | 
9 | CCCOc1ccc(C#Cc2ccc3c(c2)O[C@H]([C@H](C)NC(C)=O)C3)cc1 [Example 115, N-[(1S)-1-{(2S)-6-[(4-propoxyphenyl)ethynyl]-2,3-dihydro-1-benzofuran-2-yl}ethyl]acetamide] | 25% | 76% |  | 
10 | CC(=O)N[C@@H](C)[C@@H]1Cc2ccc(C#Cc3ccc(OCC4CC4)nc3)cc2O1 [Example 139, N-{(1S)-1-[(2S)-6-{[6-(cyclopropylmethoxy)pyridin-3-yl]ethynyl}-2,3-dihydro-1-benzofuran-2-yl]ethyl}acetamide] | 37% | 100% |  | 
11 | CC(=O)N[C@H](C)[C@H]1Cc2ccc(C#Cc3ccc(OCC4CC4)cc3)cc2O1 (racemic) [Example 111, 1:1 mixture of N-{(1R)-1-[(2R)-6-{[4-(cyclopropylmethoxy)phenyl]ethynyl}-2,3-dihydro-1-benzofuran-2-yl]ethyl}acetamide and N-{(1S)-1-[(2S)-6-[([4-(cyclopropylmethoxy)phenyl]ethynyl]-2,3-dihydro-1-benzofuran-2-yl]ethyl}acetamide] | 30% | 78% |  | 
